The values below come from patent publication US10093630B2, “Pyrazole compounds and methods of making and using same” (ABIDE THERAPEUTICS, INC., priority 2014, dated 2018).

SMILES strings stand for the structures. Where only a bound is given, the exact number is not on record here.

Common to all, as to experiment: In vitro competitive activity-based protein profiling (gel-based, FP-Rh or HT-01 probe)
Common to all, as to format: biochemical

One assay deals with T1, FAAH (Mus musculus, UniProt O08914).
T1 construct: Proteomes (mouse brain membrane fraction or cell lysates); from tissue; host or cells: mouse brain membrane fraction (or cell lysates, not specified)
T1 sequence (O08914 1-579): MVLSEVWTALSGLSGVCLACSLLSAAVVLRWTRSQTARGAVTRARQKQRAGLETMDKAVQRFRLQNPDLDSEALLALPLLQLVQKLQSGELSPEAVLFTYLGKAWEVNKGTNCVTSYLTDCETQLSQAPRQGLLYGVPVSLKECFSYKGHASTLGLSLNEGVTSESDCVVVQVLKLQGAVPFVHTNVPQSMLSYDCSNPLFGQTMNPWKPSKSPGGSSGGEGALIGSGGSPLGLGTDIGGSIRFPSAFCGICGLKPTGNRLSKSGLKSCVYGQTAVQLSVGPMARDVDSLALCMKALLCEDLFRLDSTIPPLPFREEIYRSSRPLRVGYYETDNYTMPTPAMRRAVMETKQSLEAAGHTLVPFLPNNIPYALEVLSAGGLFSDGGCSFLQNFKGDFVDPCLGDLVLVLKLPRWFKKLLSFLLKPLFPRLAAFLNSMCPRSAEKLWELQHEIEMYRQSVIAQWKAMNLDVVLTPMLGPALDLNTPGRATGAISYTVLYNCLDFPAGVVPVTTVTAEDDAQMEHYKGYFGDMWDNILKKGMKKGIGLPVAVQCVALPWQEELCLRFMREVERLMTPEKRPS
The conditions noted are these: for inhibition at 1 µM: 1 μM inhibitor, read-out: % Inhibition at 1 μM, B = FAAH; for inhibition at 10 µM: 10 μM inhibitor, read-out: % Inhibition at 10 μM, B = FAAH; for IC50: mouse brain membrane fraction or cell lysates, 30 min preincubation at 37° C., read-out: Mouse (IC50 value, nM) FAAH. An outline of the steps: (§1)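 Gel-based read-out: fluorescent band intensity after SDS-PAGE reflected remaining hydrolase activity. Inhibitors were preincubated 30 min at 37° C with 1.0 mg/mL mouse brain membrane or lysate proteome before a further 30 min at 37° C with FP-Rh or HT-01 probe.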

For the next assay, the target named is T2, PLA2G7 (Mus musculus, UniProt Q60963).
T2 construct: Proteomes (mouse brain membrane fraction or cell lysates); from tissue; host or cells: mouse brain membrane fraction (or cell lysates, not specified)
T2 sequence (Q60963 22-440): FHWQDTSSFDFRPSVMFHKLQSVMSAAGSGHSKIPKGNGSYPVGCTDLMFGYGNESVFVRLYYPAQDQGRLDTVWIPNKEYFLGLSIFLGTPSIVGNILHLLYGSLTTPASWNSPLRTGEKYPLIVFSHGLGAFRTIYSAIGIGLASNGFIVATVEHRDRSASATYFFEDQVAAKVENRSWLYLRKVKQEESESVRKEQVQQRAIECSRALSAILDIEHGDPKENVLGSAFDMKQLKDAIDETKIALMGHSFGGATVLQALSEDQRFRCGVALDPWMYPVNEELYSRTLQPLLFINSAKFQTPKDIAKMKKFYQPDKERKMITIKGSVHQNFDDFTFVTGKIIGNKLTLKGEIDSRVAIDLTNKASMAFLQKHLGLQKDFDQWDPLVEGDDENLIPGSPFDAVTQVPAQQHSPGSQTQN
The conditions noted are these: for inhibition at 1 µM: 1 μM inhibitor, read-out: % Inhibition at 1 μM, D = PLA2G7; for inhibition at 10 µM: 10 μM inhibitor, read-out: % Inhibition at 10 μM, D = PLA2G7; for IC50: mouse brain membrane fraction or cell lysates, 30 min preincubation at 37° C. An outline of the steps:
as §1

A further assay addresses T3, MAGL (Mus musculus, UniProt O35678).
T3 construct: Proteomes (mouse brain membrane fraction or cell lysates); from tissue; host or cells: mouse brain membrane fraction (or cell lysates, not specified)
T3 sequence (O35678 1-303): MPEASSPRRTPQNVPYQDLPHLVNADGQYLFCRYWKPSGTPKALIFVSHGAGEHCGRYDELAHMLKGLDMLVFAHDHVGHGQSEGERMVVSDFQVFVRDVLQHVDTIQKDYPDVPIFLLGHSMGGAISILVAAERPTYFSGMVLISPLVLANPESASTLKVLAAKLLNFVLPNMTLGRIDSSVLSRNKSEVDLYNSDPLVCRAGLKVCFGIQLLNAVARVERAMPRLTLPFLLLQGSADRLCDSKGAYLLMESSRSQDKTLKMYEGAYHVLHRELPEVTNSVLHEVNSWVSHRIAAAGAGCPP
The conditions noted are these: for inhibition at 1 µM: 1 μM inhibitor; for inhibition at 10 µM: 10 μM inhibitor; for IC50: mouse brain membrane fraction or cell lysates, 30 min preincubation at 37° C., read-out: Mouse (IC50 value, nM) MAGL. The procedure, abridged:
as §1

The next assay addresses T4, ABHD6 (Mus musculus, UniProt Q8R2Y0).
T4 construct: Proteomes (mouse brain membrane fraction or cell lysates); from tissue; host or cells: mouse brain membrane fraction (or cell lysates, not specified)
T4 sequence (Q8R2Y0 1-336): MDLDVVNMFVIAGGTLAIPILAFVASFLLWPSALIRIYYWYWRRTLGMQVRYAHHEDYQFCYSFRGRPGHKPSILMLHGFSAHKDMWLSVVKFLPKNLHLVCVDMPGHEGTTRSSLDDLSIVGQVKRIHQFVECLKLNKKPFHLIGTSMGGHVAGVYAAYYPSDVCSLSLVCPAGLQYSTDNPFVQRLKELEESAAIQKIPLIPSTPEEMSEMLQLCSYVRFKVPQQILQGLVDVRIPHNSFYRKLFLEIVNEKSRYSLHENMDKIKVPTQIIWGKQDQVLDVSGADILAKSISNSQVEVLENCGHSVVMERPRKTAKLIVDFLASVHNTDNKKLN
The conditions noted are these: for inhibition at 1 µM: 1 μM inhibitor, read-out: % Inhibition at 1 μM, C = ABHD6; for inhibition at 10 µM: 10 μM inhibitor, read-out: % Inhibition at 10 μM, C = ABHD6; for IC50: mouse brain membrane fraction or cell lysates, 30 min preincubation at 37° C., read-out: Mouse (IC50 value, nM) ABHD6. The procedure, abridged:
as §1

With `O=C(N1CCN(Cc2ccc(Cl)c(Cl)c2)CC1)n1cc(Cl)cn1` [Example 211, (4-Chloro-1H-pyrazol-1-yl)(4-(3,4-dichlorobenzyl)piperazin-1-yl)methanone], the inhibition (in general, the drop in the measured response relative to a control, in per cent) at 1 µM was more than 75% at FAAH, less than 25% at PLA2G7, more than 75% at MAGL and more than 75% on ABHD6. Moreover, the inhibition at 10 µM at FAAH, at PLA2G7, on MAGL and on ABHD6 was more than 75% each time. In addition, the IC50 at FAAH, on MAGL and on ABHD6 was less than 100 nM throughout.

As to `O=C(N1CCN(Cc2ccc(N3CCCC3)cc2)CC1)n1cc(Cl)cn1` [Example 212, (4-Chloro-1H-pyrazol-1-yl)(4-(4-(pyrrolidin-1-yl)benzyl)piperazin-1-yl)methanone], the inhibition at 1 µM was more than 75% at FAAH, less than 25% on PLA2G7, more than 75% on MAGL and more than 75% on ABHD6. The inhibition at 10 µM on FAAH, at PLA2G7, on MAGL and at ABHD6 was more than 75% each time. Further, the values for the IC50 at FAAH, at MAGL and at ABHD6 were 100 to 1000 nM, less than 100 nM and 100 to 1000 nM, respectively.

Regarding `O=C(N1CCN(Cc2ccc(C(F)(F)F)cc2)CC1)n1cc(Cl)cn1` [Example 213, (4-Chloro-1H-pyrazol-1-yl)(4-(4-(trifluoromethyl)benzyl)piperazin-1-yl)methanone], the inhibition at 1 µM at FAAH is more than 75%; on PLA2G7, less than 25%; on MAGL it was more than 75%; at ABHD6, more than 75%. Moreover, the inhibition at 10 µM on FAAH, at PLA2G7, on MAGL and on ABHD6 was more than 75% each time. Besides, the IC50 (as a rule, the point on the concentration scale where inhibition reaches its midpoint) was less than 100 nM on FAAH, 100 to 1000 nM at PLA2G7, less than 100 nM on MAGL and less than 100 nM on ABHD6.

In the case of `O=C(N1CCN(Cc2ccc(CN3CCOCC3)cc2)CC1)n1cc(Cl)cn1` [Example 214, (4-Chloro-1H-pyrazol-1-yl)(4-(4-(morpholinomethyl)benzyl)piperazin-1-yl)methanone], the inhibition at 1 µM at FAAH, on PLA2G7, on MAGL and on ABHD6 was more than 75% in each case.

For `O=C(N1CCN(CC2CC2)CC1)n1cc(Cl)cn1` [Example 215, (4-Chloro-1H-pyrazol-1-yl)(4-(cyclopropylmethyl)piperazin-1-yl)methanone], the inhibition at 1 µM at FAAH is more than 75%; on PLA2G7 it was less than 25%; on MAGL, 25 to 75%; on ABHD6, more than 75%. The inhibition at 10 µM on FAAH, on PLA2G7, at MAGL and at ABHD6 was more than 75% in each case.

With `O=C(N1CCN(Cc2cccc(Oc3ccccc3)c2)CC1)n1cc(Cl)cn1` [Example 216, (4-Chloro-1H-pyrazol-1-yl)(4-(3-phenoxybenzyl)piperazin-1-yl)methanone], the inhibition at 1 µM on FAAH was more than 75%; at PLA2G7 it was less than 25%; at MAGL, more than 75%; on ABHD6 it was more than 75%. The IC50 on FAAH was less than 100 nM; at PLA2G7, more than 1000 nM; on MAGL, less than 100 nM; at ABHD6, less than 100 nM.

As to `O=C(N1CCN(Cc2ccc(N3CCOCC3)cc2)CC1)n1cc(Cl)cn1` [Example 217, (4-Chloro-1H-pyrazol-1-yl)(4-(4-morpholinobenzyl)piperazin-1-yl)methanone], the inhibition at 1 µM on FAAH, on PLA2G7, at MAGL and on ABHD6 was more than 75% each time.

Turning to `Cc1cc(N2CCOCC2)ccc1CN1CCN(C(=O)n2cc(Cl)cn2)CC1` [Example 218, (4-Chloro-1H-pyrazol-1-yl)(4-(2-methyl-4-morpholinobenzyl)piperazin-1-yl)methanone], the inhibition at 1 µM at FAAH, at PLA2G7, on MAGL and on ABHD6 was more than 75% in each case. Moreover, the IC50 on FAAH was 100 to 1000 nM; on PLA2G7, 100 to 1000 nM; at MAGL, less than 100 nM; at ABHD6 it was 100 to 1000 nM.

For `CN(Cc1cccc(-c2ccncc2)c1)C(=O)n1cc(-c2ccccc2)cn1` [Example 219, N-Methyl-4-phenyl-N-(3-(pyridin-4-yl)benzyl)-1H-pyrazole-1-carboxamide], the inhibition at 1 µM on FAAH, at PLA2G7, at MAGL and on ABHD6 was more than 75% each time. The inhibition at 10 µM at FAAH, on PLA2G7, at MAGL and at ABHD6 was more than 75% in each case. Further, the IC50 was less than 100 nM on FAAH, less than 100 nM at PLA2G7, more than 1000 nM at MAGL and 100 to 1000 nM at ABHD6.

In the case of `CN(Cc1cccc(-c2ccncc2)c1)C(=O)n1cc(Cl)cn1` [Example 220, 4-Chloro-N-methyl-N-(3-(pyridin-4-yl)benzyl)-1H-pyrazole-1-carboxamide], the inhibition at 1 µM was more than 75% on FAAH, 25 to 75% at PLA2G7, more than 75% at MAGL and more than 75% on ABHD6. Also, the inhibition at 10 µM at FAAH, on PLA2G7, on MAGL and on ABHD6 was more than 75% in each case. For the same compound, the IC50 at FAAH was less than 100 nM; at PLA2G7 it was more than 1000 nM; on MAGL, less than 100 nM; at ABHD6, 100 to 1000 nM.

As for `CN(Cc1cccc(-c2ccncc2)c1)C(=O)n1cc(C#N)cn1` [Example 221, 4-Cyano-N-methyl-N-(3-(pyridin-4-yl)benzyl)-1H-pyrazole-1-carboxamide], the inhibition at 1 µM was more than 75% on FAAH, 25 to 75% on PLA2G7, more than 75% on MAGL and more than 75% at ABHD6. In addition, the inhibition at 10 µM on FAAH is more than 75%; at PLA2G7 it was less than 25%; at MAGL, more than 75%; at ABHD6, more than 75%.
